The test system of one series is IL-6. Nature of the series: IL-6 production by macrophage activation (ELISA). In kind it is cell-based. The note with it: RAW264.7 cells, LPS. Here is the method:
RAW264.7 cells were activated under the same conditions as in (4), the cells were recovered, proteins were extracted from the cells by a routine method. An ELISA was conducted using 96-well polystyrene microplates onto which the anti-IL-6 antibody had been immobilized. […] The detected concentrations of IL-6 per 10^6 cells were plotted in FIG. 9.

The subject of a further series is NF-κB. Description: DNA binding ability of NF-κB (gel shift assay). In kind it is cell-based. The settings on record: RAW264.7 cells. Here is the method:
Next, under the same conditions as in (2) above, RAW264.7 cells were cultured with the media supplemented with DTCM glutarimide-C12 at concentrations (0, 0.1, 0.3, 1.0 and 3.0 μg/mL) for 2 hours, to which 3.0 μg/mL of LPS was added, and the cells were further cultured for 30 minutes. Then, nuclear extracts were prepared by a routine method, and a gel shift assay was conducted with using 3 μL of a ^32P-labeled probe.
The probe was prepared as follows. First, 4 μL of 1.75 μmol/mL oligonucleotide (Promega Inc.) (5′-[…]-3′; SEQ ID N0.1), 4 μL of 10×T4 PNK buffer (Takara) and 10 μL of nucleotide free water were mixed, to which 2 μL of [γ-^32P]-ATP (Amarsham Corp.) was added, and incubated at 37° C. for 10 minutes. The reaction was then terminated by addition of 80 μL of TE buffer (10 mM Tris-HCl:1 mM EDTA=1:1). 100 μL of the reaction solution was loaded onto a Nick Column (Amersham Corp.) which had been prepared by removing the filled TE buffer and washing with distilled water, 400 μL of distilled water was loaded, and the eluate from the column was recovered in a 1.5 mL Eppendorf tube. Additional 400 μL of distilled water was loaded, and the fraction eluted again from the column was recovered in the 1.5 mL Eppendorf tube. The elute thus obtained was used as the labeled DNA probe. […]
In general terms: A gel shift assay detects complexes by their altered migration in electrophoresis.

In the next series the test system is NO production. Nature of the series: NO production by LPS-activated macrophages (Griess reaction). In kind it is cell-based. The note with it: RAW264.7 cells. Here is the method: After RAW264.7 cells were cultured under the same conditions as in (2) with the media supplemented with DTCM glutarimide-C12 at concentrations (0, 0.1, 0.3, 1.0 and 3.0 μg/mL) for 2 hours, 3.0 μg/mL of LPS was added to the media and the cells were further cultured for 20 hours. Then, NO production amounts were measured by Griess reaction and plotted against the respective DTCM glutarimide-C12 concentrations (the bar graph in FIG. 4).
For orientation: Nitrite, measured by Griess reagent, commonly stands in for NO production.

A further series deals with COX-2. Nature of the series: COX-2 expression in macrophage activation (Western blotting). In kind it is cell-based. The note with it: RAW264.7 cells, LPS. As for the experimental part: RAW264.7 cells were activated under the same conditions as in (4), the cells were recovered, proteins were extracted from the cells in a routine method, and Western blotting was conducted using an anti-COX-2 antibody (BD Bioscience) and an anti-α-tubulin antibody (Sigma Aldrich Japan) at the dilution ratio of 1/3000.
On the technique in general: Immunoblotting shows a protein as a band on a membrane.

Another series concerns iNOS. Nature of the series: iNOS expression in macrophage activation (Western blotting). The note with it: RAW264.7 cells, LPS. In kind it is cell-based. Here is the method: RAW264.7 cells were activated under the same conditions as in (4), the cells were recovered and proteins were extracted from the cells by a routine method. Western blotting was conducted, using an anti-iNOS antibody (Santa Cruz Biotechnology) and an anti-α-tubulin antibody (Sigma Aldrich Japan) at the dilution ratio of 1/3000.

Another series concerns F9 cells. Description: Survival rate and growth of F9 cancer cells. In kind it is cell-based, murine. Here is the method:
F9 cells derived from murine embryonic tumor cells (purchased from RIKEN Tsukuba Institute BioResource Center, Cell Engineering Division) were plated onto plastic dishes at 1×10^4 cell/mL in DMEM medium containing 15% FBS. DTCM glutarimide-C12 was then added at the concentration of 0, 0.1, 0.3, 1.0, 3.0, 10.0 or 30.0 μg/mL in the culture media, and were cultured for 24, 48 or 72 hours. By following the same method as described in “Measurement of Cell Survival Rate by Trypan Blue Staining” in Example (10), the survival rates of cells were measured. Also, suspensions of the cultured cells were similarly prepared and the numbers of cells in the suspensions were counted by Coulter Counter (Beckman Coulter Inc.) to evaluate cell growth.

The subject of series [1] is RAW264.7 cells. Nature of the series: Cytotoxicity on RAW264.7 cells: cell survival rate (trypan blue) and total cell number. In kind it is cell-based. The settings on record: after 48 hours. As for the experimental part: In this example, cytotoxicity of DTCM glutarimide on RAW264.7 cells was evaluated, based on cell survival rate and cell growth rate.
The RAW264.7 cells were seeded on plastic dishes at 1×10^4 cells/ml in DMEM medium containing 10% FBS, to which DTCM glutarimide-C12 was added at the concentration of 0, 0.1, 0.3, 1.0, 3.0 or 10.0 μg/mL to the media. After 24 hours or 48 hours of culture, numbers of total cells were counted using hemacytometer, and numbers of living cells were counted using trypan blue dye exclusion assay.

Series [2] relates to murine bone marrow-derived macrophages. Nature of the series: Toxicity on murine bone marrow-derived macrophages (trypan blue dye exclusion). In kind it is cell-based, mouse. As for the experimental part:
An 8 week-old ICR mouse (male, purchased from Charles River) sacrificed by cervical dislocation was dissected under sterile conditions to isolate femora and […] from both legs. Medullary cavities were washed with α-MEM several times using a 21G needle attached to a 1 mL syringe. The fluid (α-MEM) after washing was filtrated through a nylon mesh (330 mesh) to remove unnecessary cells, and myelocytes were isolated. The myelocyte suspension in α-MEM thus obtained was diluted to 1.25 to 3.75×10^6 cell/mL. To 80 mL of the myelocyte suspension, 80 μL of hM-CSF (Wako Pure Chemical) at 10 μg/mL prepared with PBS containing 0.1% BSA was added (final concentration 10 ng/mL). The cells thus prepared were seeded onto 24-well plates (Corning Inc.) by 500 μL to 1 mL per well, and cultured at 37° C. under 5% CO2 for 2 days. Then, unattached cells were washed away with α-MEM, fresh α-MEM containing 10 ng/mL of hM-CSF was added, and the attached cells thus obtained were used as the murine bone marrow-derived macrophages.
The murine bone marrow-derived macrophages thus prepared were seeded onto 24-well plates (Corning Inc.) by 1 mL each (1.25 to 3.75×10^6 cell/mL). To each of the wells, DTCM glutarimide-C12 at respective concentrations of 1.0, 3.0, 10.0 and 30.0 μg/mL was added, and all the experimental groups were cultured at 37° C. under 5% CO2. The control group was cultured under the same condition but without addition of DTCM glutarimide-C12.
The cells in the experimental groups were detached using a cell scraper and dissolved in α-MEM at 24 hours, 48 hours and 72 hours after the addition of DTCM glutarimide-C12. Then 1 mL of the cell suspensions were recovered in fresh Eppendorf tubes. […] 10 μL of the cell suspensions was put onto a hemacytometer (Erma Inc.) and total cells and dead cells were counted under a microscope at 100× magnification. In hemacytometric counting, approximately 100 cells were counted per one visual field, and the cell survival rates obtained in four visual fields were averaged. The cell survival rate (%) was calculated according to the following formula. […]

The test system of series [3] is RAW264.7 cells. Nature of the series: Living cell count by MTT method in LPS-stimulated cells. The settings on record: all concentrations 0.1-3.0 μg/mL, 20 hours. In kind it is cell-based.
Series [4] has as its system RAW264.7 cells. Description: Inhibition of synthesis of DNA, RNA and protein (3H-thymidine, uridine, leucine incorporation). In kind it is cell-based. The note with it: concentrations up to 10.0 μg/mL, 6 hours + 1 hour label. As for the experimental part: In this example, the cytotoxicity of DTCM glutarimide on RAW264.7 cells was evaluated, based on the inhibition of synthesis of DNA, RNA and protein.
After RAW264.7 cells were cultured under the same conditions as in (2) with the media supplemented with DTCM glutarimide-C12 at concentrations (0, 0.1, 0.3, 1.0, 3.0 and 10.0 μg/mL) for 6 hours, ^3H-labeled 0.1% thymidine, 0.1% uridine and 0.1% leucine were added to the media and the cells were further cultured for 1 hour. The cells were recovered and radioactivity of TCA-insoluble fractions was measured by using a liquid scintillation counter. The counts obtained at the DTCM glutarimide-C12 concentrations were normalized by setting to 100 the count obtained without addition of DTCM glutarimide-C12 in a control experiment and relatively plotted in the graph shown in FIG. 3.

Series [5] deals with murine bone marrow-derived macrophages. Description: RANKL-induced osteoclast differentiation of murine bone marrow-derived macrophages (TRAP staining). The note with it: 0.3, 1.0 and 3.0 μg/mL, RANKL 100 ng/mL, 5 days. In kind it is cell-based, mouse. As for the experimental part: The primary murine bone marrow-derived macrophages prepared in Example (10) were plated onto 24-well plates (Corning Inc.) by 500 μL each (1.25 to 3.75×10^6 cell/mL). Then 5 μL of DTCM glutarimide-C12 was added to each of the wells to the final concentrations of 0, 0.3, 1.0 and 3.0 μg/mL. All the experimental groups of plates were cultured at 37° C. under 5% CO2 for 2 hours. hRANKL (Wako Pure Chemical) at 10 μg/mL prepared in PBS containing 0.1% BSA was then added by 5 μL each (final concentration 100 ng/mL), and culture was continued. RANKL has been known as a factor to induce osteoclasts differentiation of macrophages etc. (Kobayashi et al. Crit. Rev Eukaryot Gene Expr. 19(1), 61-72, 2009). The control group of plates was cultured under the same condition but without RANKL and DTCM glutarimide.
After 5 days of culture, the media were removed, and the cells were washed by PBS. 250 μL each of 3.5% paraformaldehyde was added to the wells to fix the cells for 5 minutes, and the fixative was washed away with PBS. […] Following an addition of 250 μL of PBS, the plates were observed under a microscope and the number of mature osteoclasts was counted in the entire visual field by regarding TRAP-positive cell having three or more fused nuclei as the mature osteoclast as it is known to be TRAP-positive.

Where [6] appears, read: 10 μg/mL, positive control, LPS.
[7] abbreviates: 0.1-3.0 μg/mL, 2 hours pretreatment, LPS 3.0 μg/mL, 20 hours.

Turning to `O=C(NC1=CC(=O)[C@H]2O[C@H]2[C@H]1O)c1ccccc1O` [(−)-DHMEQ, reference compound], the IL-6 production result in the series with IL-6 (10 μg/mL, positive control) is recorded as “IL-6 production is suppressed”. Further, the “activity of NF-κB (DNA binding)” value in the series with NF-κB (setting [6]) is listed as “the activity of NF-κB is suppressed”. Besides, the NO production result with NO production (setting [6]) is “NO expression is suppressed”. The COX-2 expression result in the series on COX-2 (10 μg/mL, positive control) was “COX-2 expression is suppressed”. Moreover, the iNOS expression entry with iNOS (10 μg/mL, control) is on record as “iNOS expression is suppressed”.
In the case of `CCCCCCCCCCCCSC(=O)CC1CC(=O)NC(=O)C1` [DTCM glutarimide-C12], the IL-6 production entry with IL-6 (concentrations below 3.0 μg/mL) is “did not affect this IL-6 production”. Moreover, the “cell survival rate of F9 cells” value in the series with F9 cells (0.1-30.0 μg/mL, 24, 48 or 72 hours, depending on concentration) is reported as “significantly reduced”. In the series with F9 cells (0.1-30.0 μg/mL, 24-72 hours, versus group without addition), the “cell growth of F9 cells” value is “suppressed”. The “cell survival rate of F9 cells, 72-hour versus 24-hour and 48-hour culturing” value with F9 cells (10 or 30 μg/mL) is given as “significantly reduced cell survival rate”. Moreover, the “total cell number (cell growth)” value in the series on RAW264.7 cells [1] (concentrations up to 1.0 μg/mL) is given as “no suppression of cell growth was detected”. Further, the “cell survival rate (living cell number/total cell number)” value in the series with RAW264.7 cells [1] (concentrations up to 3.0 μg/mL) was “no cell killing effect was detected”. Also, the survival rate entry in [2] (3.0 μL groups, regardless of culture time (24, 48, 72 hours)) is on record as “more than 80%”; in series [2] (10.0 and 30.0 μg/mL groups, regardless of culture time) it was “reduced”. For the same compound, the “toxicity on murine myelocyte-derived macrophages” value in [2] (concentrations up to 3.0 μL) was “does not exhibit toxicity”. Moreover, the “DNA binding ability of NF-κB” value with NF-κB (concentrations below 3.0 μg/mL, LPS 30 minutes) is reported as “did not suppress the DNA binding ability of NF-κB”. In addition, the NO production result in the series on NO production (setting [7]) was “significantly suppressed this NO production in a concentration-dependent manner”. Also, the COX-2 expression entry with COX-2 (0.1-3.0 μg/mL) was “prominently suppressed this COX-2 expression in a concentration-dependent manner”. Further, the iNOS expression entry in the series with iNOS (0.1-3.0 μg/mL) is “prominently suppressed this iNOS expression in a concentration-dependent manner”. In addition, the “numbers of living cells (MTT), cell growth” value in the series with RAW264.7 cells [3] is given as “did not affect the cell growth”. In addition, in the series with RAW264.7 cells [4], the “inhibition of synthesis of DNA, RNA and protein” value is reported as “no significant inhibitory activity”. Moreover, the number of osteoclasts entry in [5] is recorded as “significantly reduced”.
As for `CCCCCCSC(=O)CC1CC(=O)NC(=O)C1` [DTCM glutarimide-C6], the NO production result in the series on NO production (setting [7]) is listed as “suppresses NO production”; in the series on NO production (0.1-3.0 μg/mL, 2 hours pretreatment, LPS 3.0 μg/mL, 20 hours, listed as DTCM glutarimide-C16), “almost the same results”.

The values are drawn from patent publication US8524747B2, “Pharmaceutical compositions” (Keio University, priority 2008, dated 2013).
